Legend:
[1] = biological target: T1, PDE4B (human recombinant) (Homo sapiens, UniProt Q07343); test: Inhibition of PDE4B activity (FP and/or SPA assay); assay type: biochemical; conditions: generally FP assay; one reading or average of n readings; read-out: PDE4B pIC50 (generally in FP assay) (±about 0.5) (converted)
T1 construct: made in house; host or cells: Saccharomyces cerevisiae strain GL62 (PDE-deficient yeast)
Excerpt: Human recombinant PDE4B, in particular the 2B splice variant thereof (HSPDE4B2B), is disclosed in WO 94/20079 and also M. M. McLaughlin et al., “A low Km, rolipram-sensitive, cAMP-specific phosphodiesterase from human brain: cloning and expression of cDNA, biochemical characterisation of recombinant protein, and tissue distribution of mRNA”, J. Biol. Chem., 1993, 268, 6470-6476. For example, in Example 1 of WO 94/20079, human recombinant PDE4B is described as being expressed in the PDE-deficient yeast Saccharomyces cerevisiae strain GL62, e.g. after induction by addition of 150 uM CuSO4, and 100,000×g supernatant fractions of yeast cell lysates are described for use in the harvesting of PDE4B enzyme.
The ability of compounds to inhibit catalytic activity at PDE4B or 4D (human recombinant), PDE3 (from bovine aorta), PDE5 (human recombinant) or PDE6 (from bovine retina) can optionally be determined by Scintillation Proximity Assay (SPA) in a 96-well format.
Test compounds (as a solution in DMSO, suitably about 2 microlitre (ul) volume of DMSO solution) are preincubated at ambient temperature (room temperature, e.g. 19-23° C.) in Wallac Isoplates (code 1450-514) with PDE enzyme in 50 mM Tris-HCl buffer pH 7.5, 8.3 mM MgCl2, 1.7 mM EGTA, 0.05% (w/v) bovine serum albumin for 10-30 minutes (usually 30 minutes). The enzyme concentration is adjusted so that no more than 20% hydrolysis of the substrate defined below occurs in control wells without compound, during the incubation. For the PDE3, PDE4B and PDE4D assays, [5′,8-^3H]Adenosine 3′,5′-cyclic phosphate (Amersham Pharmacia Biotech, code TRK.559; or Amersham Biosciences UK Ltd, Pollards Wood, Chalfont St Giles, Buckinghamshire HP8 4SP, UK) is added to give 0.05uCi per well and about 10 nM final concentration. For the PDE5 and PDE6 assays, [8^−3H]Guanosine 3′,5′-cyclic phosphate (Amersham Pharmacia Biotech, code TRK.392) is added to give 0.05uCi per well and about 36 nM final concentration. Plates containing assay mixture, suitably approx. 100 ul volume of assay mixture, are mixed on an orbital shaker for 5 minutes and incubated at ambient temperature for 1 hour. Phosphodiesterase SPA beads (Amersham Pharmacia Biotech, code RPNQ 0150) are added (about 1 mg per well) to terminate the assay. Plates are sealed and shaken and allowed to stand at ambient temperature for 35 minutes to 1 hour (suitably 35 minutes) to allow the beads to settle. Bound radioactive product is measured using a WALLAC TRILUX 1450 Microbeta scintillation counter. For inhibition curves, 10 concentrations (e.g. 1.5 nM-30 uM) of each compound are assayed. Curves are analysed using ActivityBase and XLfit (ID Business Solutions Limited, 2 Ocean Court, Surrey Research Park, Guildford, Surrey GU2 7QB, United Kingdom) Results are expressed as pIC50 values.
The ability of compounds to inhibit catalytic activity at PDE4B (human recombinant) or PDE4D (human recombinant) can optionally be determined by IMAP Fluorescence Polarisation (FP) assay (IMAP Explorer kit, available from Molecular Devices Corporation, Sunnydale, Calif., USA; Molecular Devices code: R8062) in 384-well format.
The IMAP FP assay is able to measure PDE activity in an homogenous, non-radioactive assay format. The FP assay uses the ability of immobilised trivalent metal cations, coated onto nanoparticles (tiny beads), to bind the phosphate group of Fl-AMP that is produced on the hydrolysis of fluorescein-labelled (Fl) cyclic adenosine mono-phosphate (Fl-cAMP) to the non-cyclic Fl-AMP form. […] Binding of Fl-AMP product to the beads (coated with the immobilised trivalent cations) slows the rotation of the bound Fl-AMP and leads to an increase in the fluorescence polarisation ratio of parallel to perpendicular light. Inhibition of the PDE reduces/inhibits this signal increase. […]

[2] = system: TNF-α (TNF-alpha) production in human PBMC (peripheral blood mononuclear cells); test: Inhibition of TNF-alpha production in human PBMC assay (MSD technology); assay type: cell-based; conditions: Homo sapiens, PBMC, LPS stimulated, measured and/or mean of n measurements, read-out: PBMC pIC50 (MSD assay), inhibition of TNF-α production (converted)
Procedure: A 96-well plate (96 MicroWell™ Plates Nunclon™Δ-High Flange Design, Fisher Scientific UK, Bishop Meadow Road, Loughborough LE 11 5 RG, Leicestershire, UK) is prepared by initially adding to column 1 ca. 10 mM of test compound dissolved in DMSO. […] The compound is further diluted with DMSO into columns 2 to 9 by 8 successive 3-fold dilutions using the Biomek® FX Laboratory Automation Workstation (Beckman Coulter, Inc., 4300 N. Harbor Boulevard, P.O. Box 3100, Fullerton, Calif. 92834-3100, USA). Column 10 is used as a DMSO negative control (High Signal, 0% response), whilst column 11, which contains 10 mM of the PDE4 inhibitor roflumilast, is used as a positive control (Low Signal, 100% response). About 1 μl (about 1 ul) of compound is transferred to the compound plate using the Biomek® FX.
PBMC cells (peripheral blood mononuclear cells) are prepared from heparinised human blood (using 1% v/v Heparin Sodium 10001 U/ml Endotoxin Free, Leo Laboratories Ltd., Cashel Road, Dublin 12. Ireland, Cat No: PL0043/0149) from normal volunteers using the Accuspin™ System-Histopaque®-1077 essentially (Sigma-Aldrich Company Ltd., The Old Brickyard New Rd, Gillingham, Dorset SP8 4XT, UK). About 20 ml of blood is overlaid onto 15 ml Histopaque® in Accuspin™ tubes. The tube is then centrifuged at about 800 g for ca. 20 minutes. The cells are collected from the interface, washed by centrifugation (ca. 1300 g, ca. 10 minutes) and resuspended in RPMI1640 medium (Low endotoxin RPMI1640 medium, Cat No: 31870-025, Invitrogen Corporation Invitrogen Ltd, 3 Fountain Drive, Inchinnan Business Park, Paisley PA4 9RF, UK) containing 10% foetal calf serum, 1% L-glutamine (Invitrogen Corporation, Cat No: 25030024) and 1% penicillin/streptomycin (Invitrogen Corporation, Cat No: 15140-122). Viable cells are counted by trypan blue staining and diluted to 1×10^6 viable cells/ml. About 50 μl (about 50 ul) of diluted cells and about 75 μl (about 75 ul) of LPS (ca. 1 ng/ml final; Sigma Cat No: L-6386) are added to the compound plate, which is then incubated at 37° C., 5% CO2, for 20 hours.
The supernatant is removed and the concentrations of TNF-α are determined by electrochemiluminescence assay using the Meso Scale Discovery (MSD) technology (Meso Scale Discovery, 9238 Gaither Road, Gaithersburg, Md. 20877, USA). See the “TNF-α (TNF-alpha) MSD Assay” described below for typical details.
For the following Examples, which are compounds of formula (I) or salts thereof, and generally when using the one of the above assays, or a generally similar or generally analogous assay, the measured and/or mean pIC50 values for inhibition of TNF-α (TNF-alpha) production in PBMCs are generally as follows (subject to a possibly-large variability or error):
Using the Biomek FX, 25 μl (25 ul) of MSD Human Serum Cytokine Assay Diluent (Meso Scale Discovery, 9238 Gaither Road, Gaithersburg, Md. 20877) is added to a 96-well High-Bind MSD plate pre-coated with anti-hTNF alpha capture antibody (MA6000) and then incubated for 24 hours at 4° C. to prevent non-specific binding. About 20 μl (ul) of supernatant from the PBMC plate or about 40 μl (ul) of supernatant from the whole blood (WB) plate are then transferred from columns 1-11 to columns 1-11 of the MSD plate using the Biomek FX. About 20 μl (ul) of TNF-α standard (Cat No. 210-TA; R&D Systems Inc., 614 McKinley Place NE, Minneapolis, Minn. 55413, USA) are added to column 12 of the MSD plate to generate a standard calibration curve (about 0 to 30000 pg/ml final).
For the Whole Blood assay, plates are washed after 2 hours shaking with a Skanwasher 300 version B (Skatron Instruments AS. PO Box 8, N-3401 Lier, Norway). About 40 μl (ul) of diluted sulfo-TAG antibody (ca. […] final) is added, the plates are shaken at room temperature for 1 hours, and the plates washed again as above. About 150 μl (ul) of Read Buffer T (2×) is added to the plates, which are then read on a MSD Sector 6000. […]

T1 sequence (Q07343 1-564 isoform Q07343-2): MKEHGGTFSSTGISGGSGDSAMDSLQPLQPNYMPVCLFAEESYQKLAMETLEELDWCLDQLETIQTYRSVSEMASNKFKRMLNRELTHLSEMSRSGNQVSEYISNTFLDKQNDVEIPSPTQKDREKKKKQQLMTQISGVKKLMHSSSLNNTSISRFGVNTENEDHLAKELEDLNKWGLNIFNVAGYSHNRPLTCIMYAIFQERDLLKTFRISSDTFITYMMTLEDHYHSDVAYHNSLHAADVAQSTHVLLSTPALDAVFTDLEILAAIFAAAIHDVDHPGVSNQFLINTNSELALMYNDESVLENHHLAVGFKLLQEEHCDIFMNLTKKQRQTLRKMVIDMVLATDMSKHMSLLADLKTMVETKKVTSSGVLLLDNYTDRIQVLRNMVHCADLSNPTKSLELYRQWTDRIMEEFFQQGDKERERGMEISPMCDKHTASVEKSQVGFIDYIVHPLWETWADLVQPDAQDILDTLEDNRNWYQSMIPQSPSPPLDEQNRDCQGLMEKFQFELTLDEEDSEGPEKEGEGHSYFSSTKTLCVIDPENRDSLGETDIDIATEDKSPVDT

IC50 [1]: ~0.0794 nM
SMILES: CCc1nc2c(cnn2CC)c(NC2CCN(C(N)=O)CC2)c1CNC(=O)c1ccc(CCCCOCCCCN2CCOCC2)cc1 [Example 23, 4-({1,6-diethyl-5-[({[4-(4-{[4-(4-morpholinyl)butyl]oxy}butyl)phenyl]carbonyl}amino)methyl]-1H-pyrazolo[3,4-b]pyridin-4-yl}amino)-1-piperidinecarboxamide]
IC50 [2]: ~0.631 nM

From patent US20090325952A1, “PYRAZOLO[3,4-B]PYRIDINE COMPOUNDS, AND THEIR USE AS PDE4 INHIBITORS” (Glaxo Group Limited, priority 2006, published 2009)
